The text below walks through data of US20120020876A1, “HEDGEHOG PATHWAY INHIBITORS” (priority 2009, published 2012).

The structures appear in SMILES notation. “Also recorded” adds a separate entry of the source.

The test system of series [1] is transplanted pancreatic tumors. Nature of the series: Growth of subcutaneous and orthotopic transplanted pancreatic tumors. It is filed as in vivo. The settings on record: transplantation models of human or mouse origin; gemcitabine Q3Dx4, 12 days. On the procedure:
The human pancreatic cancer cell line AsPc1 was cultured according to instructions. Mouse pancreatic cancer cell lines […], […] and DT8082 were isolated from tumors arising in KPC mice using a modification of the protocol described by Schreiber et al., Gastroenterology (20004) 127:250. Briefly, a 3 mm^3 fragment of PDA was excised, washed in 10 mL of cold PBS, and then finely diced with sterile razors. Cells were incubated in 10 mL of collagenase solution at 37° C. for 30-45 minutes with mixing (1 mg/mL collagenase V in DMEM/F12). Cells were spun (100 rpm, 5 min.) and resuspended in 0.05% Trypsin/EDTA for 5 min. at 37° C., and then quenched with DMEM supplemented with 10% fetal calf serum and 96 μM CaCl2. Cells were washed 3 times with DMEM/F12 medium and plated in a 6-well Biocoat dish (Becton Dickenson) in the ductal cell medium. After 3-4 passages, cells were transferred to standard plastic tissue culture dishes and grown in DMEM+10% FCS. 1×10^6 cells suspended in 100 μL of PBS were injected subcutaneously into the flanks of nude mice (xenografts) or into immunocompetent mice (syngeneic). For syngeneic models, recipient mice were descended from mice used to generate the KPC PDA cell lines. […] Long (L) and short (S) axes of each tumor were measured with calipers (for subcutaneous tumors) or ultrasound (for orthotopic tumors). Tumor volume (V) was calculated: V=(L×S^2)/2. […]

In series [2] the test system is KPC tumors. Nature of the series: Histology (H&E) of treated KPC tumors. The settings on record: KPC tumors after 8-12 days of treatment. It is filed as in vivo, mouse.
The subject of series [3] is transplanted pancreatic tumors. Nature of the series: Proliferation of transplanted tumors (phospho-histone H3 immunohistochemistry). It is filed as in vivo, mouse. The settings on record: gemcitabine Q3Dx4. On the procedure: (§1) 1×10^6 cells suspended in 100 μL of PBS were injected subcutaneously into the flanks of nude mice (xenografts) or into immunocompetent mice (syngeneic). For syngeneic models, recipient mice were descended from mice used to generate the KPC PDA cell lines. Orthotopic tumors with MiaPaca2 were generated as previously described (Niedergethmann et al., Br J Cancer 97, 1432 (Nov. 19, 2007)). Long (L) and short (S) axes of each tumor were measured with calipers (for subcutaneous tumors) or ultrasound (for orthotopic tumors). Tumor volume (V) was calculated: V=(L×S^2)/2. Tumor volumes were normalized relative to the volume at the start of drug treatment for subcutaneous tumors. […] Tumor images were acquired using a pediatric ultrasound machine. This machine was not equipped for 3D reconstruction, so the same formula V=(L×S^2)/2 was used to estimate the tumor volumes and changes. […] When appropriate, a fifth dose was given on the final day four hours prior to necropsy for pharmacological analyses.
(§2) Tissues were fixed in 10% formalin solution for 24 hours and transferred to 70% ethanol. Tissues were paraffin embedded, sectioned and rehydrated. For CD31 IHC, sections were unmasked in 10 mM EDTA, pH 8.0 in a pressure cooker. For all other antibodies, sections were unmasked in 10 mM citric acid in a pressure cooker. Endogenous peroxidases were quenched in 3% H2O2/PBS for 20 minutes. […]

A further series concerns KPC pancreatic tumors. In words: Monitoring of KPC pancreatic tumor volume by 3D high resolution ultrasonography. The settings on record: gemcitabine 100 mg/kg twice weekly, Compound A 40 ug/kg/day, or both. In kind it is in vivo, mouse. An excerpt: For survival studies, mice were enrolled following the detection of 5-10 mm diameter tumor by ultrasound. Tumors were quantified by 3D ultrasound twice weekly until endpoint. High resolution ultrasound (US) imaging of normal and diseased mouse pancreas using the Vevo 770 System with a 35 MHz RMV scanhead (Visual Sonics, Inc.). 3D images were produced using the 3D motor arm to collect serial images at 0.25 mm intervals through the thickness of the tumor. Tumors were outlined on each 2D image and reconstructed to quantify the 3D volume using the integrated Vevo 770 software package.

Series [4] has as its system KPC tumors. In words: Proliferation of KPC tumors (phospho-histone H3 immunohistochemistry). It is filed as in vivo, mouse. The settings on record: 4 days or 8-12 days of treatment. On the procedure:
(§3) Tissues were fixed in 10% formalin solution for 24 hours and transferred to 70% ethanol. Tissues were paraffin embedded, sectioned and rehydrated. For CD31 IHC, sections were unmasked in 10 mM EDTA, pH 8.0 in a pressure cooker. For all other antibodies, sections were unmasked in 10 mM citric acid in a pressure cooker. Endogenous peroxidases were quenched in 3% H2O2/PBS for 20 minutes. Remaining steps were carried out with Vectastain ABC kits appropriate to the species of primary antibody (Vector Labs, Burlingame, Calif.) with the following modification: blocking serum was supplemented with Protein Blocking Agent (Immunotech/BeckmanCoulter, Fullerton, Calif.) diluted 1:50. Antigens were developed with DAB Peroxidase Substrate (Vector Labs). The following antibody dilutions were used: Phospho-Histone H3, 1:100 (#9701, Cell Signaling Technology); Cleaved Caspase 3, 1:100 (#9661, Cell Signaling Technology); CD31, 1:75 (SC-1506). Slides were counterstained with hematoxylin.

Series [5] in a line: Determination of dFdCTP in tissues by HPLC. It is filed as in vivo, mouse. The settings on record: 50 or 100 mg/kg gemcitabine i.p., 4 h. On the procedure:
Tissues were rapidly dissected and snap frozen in liquid nitrogen. Specimens were maintained at −80° C. until nucleotide extraction. Specimens were ground under liquid nitrogen with a mortar and pestle. The powdered contents were suspended in 0.4N perchloric acid and sonicated in an ice bath. Solids were removed by centrifugation, the pellet was washed with perchloric acid, and the supernatants were combined. Following neutralization with KOH and removal of KClO4 by centrifugation, a portion of the supernatant was analyzed by high-pressure liquid chromatography. The amount of gemcitabine triphosphate was normalized to the ATP level determined in the same sample analysis. Samples with inadequate concentrations of ATP were excluded from analysis.

For series [6], the system named is pancreatic tumors in KPC mice. Nature of the series: Survival study of tumor-bearing KPC mice. In kind it is in vivo, mouse. The settings on record: KPC mice enrolled with 5-10 mm tumors. The protocol: vehicles: 20 μL/g 0.85% NaCl+8 μL/g 5% HPBCD;
Compound A: 40 mg/kg Compound A+20 μL/g 0.85% NaCl;
For survival studies, mice were enrolled following the detection of 5-10 mm diameter tumor by ultrasound. Tumors were quantified by 3D ultrasound twice weekly until endpoint.

Series [7] concerns transplanted pancreatic tumors. Nature of the series: Apoptosis in transplanted tumors (cleaved caspase 3 immunohistochemistry). In kind it is in vivo, mouse. The settings on record: gemcitabine Q3Dx4. The protocol: as §1, §2
Series [8] is described as follows: 19F NMR of fluorinated gemcitabine metabolites in tissue. In kind it is in vivo, mouse. The settings on record: six hours after gemcitabine dosage; pilot experiments. On the procedure:
Mice were treated with indicated regiments for 12 days. […] Tissues were rapidly dissected and snap frozen in liquid nitrogen. Tissue specimens were maintained at −80° C. until subjected to nucleotide extraction. Samples were homogenized in a Qiagen TissueLyser with a 5 mm ball bearing for 2×6 minutes at 25 KHz, in the presence of 4 volumes of ice-cold acetonitrile (μL acetonitrile=4×[…] of tissue). An equal volume of water was added and then the sample was spun at 14,000 rpm for 10 minutes at 4° C. Supernatant was freeze dried, resuspended in 600 μL of D2O and transferred to a 5 mm standard NMR tube (Wilmad) for ^19F NMR analysis on a Bruker 600 MHZ (14.1T) Avance NMR spectrometer using a QNP probe. Acquisition parameters included a 1D pulse sequence of ^19F observation and inverse-gated ^1H decoupling, spectral sweep width of 177 ppm (100000 Hz), 4096 scans and 1.65 sec of repetition time. Total acquisition time for each sample was about 1 hr 55 min. Trichloro-fluoro-methane was used for ^19F NMR chemical shift calibrations. A broad hump observed in the baseline of ^19F NMR spectra was removed by application of Linear-prediction (LP) back projection to the time domain data by using 2000 (number of LP) coefficients and 128 back-prediction points prior to Fourier transformation and phase correction. […]

Series [9] in a line: Gemcitabine (dFdC) in blood of normal mice by HPLC. It is filed as in vivo, mouse.
The test system of series [10] is KPC tumors. In words: Apoptosis in KPC tumors (Cleaved Caspase 3 immunohistochemistry). It is filed as in vivo, mouse. The protocol: as §3
The test system of series [11] is pancreatic ductal adenocarcinoma. The settings on record: cited from earlier work.

Take `Nc1ccn([C@@H]2O[C@H](CO)[C@@H](O)C2(F)F)c(=O)n1` [gemcitabine, 2′,2′-difluorodeoxycytidine]: the “tumor growth of transplanted tumors” value in series [1] is on record as “substantial inhibition of tumor growth”. Besides, the “tumor stroma / histological pattern” value in the series with KPC tumors [2] is “dense stromal matrix”. The “proliferative rate of transplanted tumors” value in series [3] is recorded as “significantly lower proliferative rates”. For the same compound, the “objective (ultrasonographic) response, responding mice/treated mice” value with KPC pancreatic tumors is 2/10. In the series with KPC tumors [4], the “proliferation of KPC tumors” value is recorded as “significantly diminished; also recorded: decreased”. Further, in series [5], the “dFdCTP in KPC tumors” value is listed as “absent”; the “dFdCTP in transplanted tumor tissues and control tissues” value was “present”. The “effect on survival of KPC mice” value in series [6] is recorded as “Neither gemcitabine nor Compound A treatment had an effect on the survival”. Besides, in series [7], the “apoptosis in transplanted tumors” value is recorded as “no significant changes in apoptosis”. Moreover, in series [8], the “19F signals in PDA and control tissues” value is reported as “absent”. Further, the “half-life of gemcitabine in circulating blood” value in series [9] is on record as “short half-life”. In addition, the “apoptosis in KPC tumors” value in the series on KPC tumors [10] was “unchanged in most KPC tumors”. Also, the extension of survival result in series [11] (pancreatic ductal adenocarcinoma, standard-of-care therapy) is listed as “a few weeks”. Besides, in series [11] (patients, Tempero et al. 2003), the “patients with objective radiographic response at the primary tumor site” value is listed as 5-10%.
